This is an account of results in patent US12496329B2, “Methods of using and compositions including an incretin analog” (Eli Lilly and Company, priority 2021, dated 2025).

One series is described as follows: Phase 2 study for T2DM. The note with it: 16 week data; start 1 or 2 mg, steps of 1, 2, 3 or 4 mg to maximum 12 mg QW SC. It counts as in vivo, human. The source says: Studies are designed to further evaluate the effectiveness and safety of the GGG tri-receptor agonist (SEQ ID NO: 1) in a larger population of individuals with diabetes. The study is a randomized, investigator- and participant-blind, placebo-controlled study conducted in individuals with diabetes (i.e., females or males aged 18-75 years, inclusive, with T2DM for at least 3 months and HbA1c at lead-in and screening of ≥7.0% and ≤10.5% and treated with diet and exercise alone or a stable dose of metformin for at least 3 months prior to screening, with stable body weight for 3 months prior to randomization and with a BMI of 25-50 kg/m^2 at screening).
Dose escalation of the GGG tri-receptor agonist is assessed over 36 weeks in cohorts administered the GGG tri-receptor agonist, dulaglutide or placebo. A first cohort of 50 individuals is administered 2.0 mg of the GGG tri-receptor agonist for Weeks 1-4, 4.0 mg for the Weeks 5-8, 8.0 mg for Weeks 9-12, and then 12.0 mg for Weeks 13-36. […] A third cohort of 20 individuals is administered 2.0 mg of the GGG tri-receptor agonist for Weeks 1-4, 4.0 mg for Weeks 5-8, and then 8.0 mg for Weeks 9-36. […]
Blood samples are collected pre-dose and at Week 24 for HbA1c. […] In addition, change in body weight (kg) is assessed from baseline to Week 24 and to Week 36. […]

Series [1] is described as follows: Phase 2 study for obesity and NAFLD. It counts as in vivo, human. The note with it: 16 week data; dose range 2-12 mg; steps of 1, 2, 3 or 4 mg QW SC. The source says:
Studies are designed to further evaluate the effectiveness and safety of the GGG tri-receptor agonist (SEQ ID NO:1) in a larger population of obese individuals or overweight individuals. The study is a randomized, investigator- and participant-blind, placebo-controlled study conducted in obese individuals or overweight individuals without diabetes (i.e., females or males aged 18-75 years, inclusive, with obesity prior to randomization and with a BMI of ≥30 kg/m^2 at screening or overweight prior to randomization and with a BMI of ≥27 kg/m^2 […] <30 kg/m^2 at screening with weight-related comorbidities but without T2DM).
Dose escalation of the GGG tri-receptor agonist is assessed over 36 weeks in cohorts administered the GGG tri-receptor agonist, dulaglutide or placebo. A first cohort of 60 individuals is administered 2.0 mg of the GGG tri-receptor agonist for Weeks 1-4, 4.0 mg for the Weeks 5-8, 8.0 mg for Weeks 9-12, and then 12.0 mg for […]. […] An additional 125 individuals are assessed for NAFLD, which is characterized by ≥10% liver fat by magnetic resonance imaging proton density fat fraction (MRI-PDFF).
Body weight is assessed at pre-dose and at Week 24 and at Week 48 for % change in body weight. Mean change in waist circumference (cm) is measured at Week 24 or Week 48. […]

Consider `CC[C@H](C)[C@H](NC(=O)[C@H](Cc1ccccc1)NC(=O)[C@H](C)NC(=O)C(C)(C)NC(=O)[C@H](CCC(N)=O)NC(=O)[C@H](C)NC(=O)[C@H](CCCCNC(=O)COCCOCCNC(=O)CC[C@H](NC(=O)CCCCCCCCCCCCCCCCCCC(=O)O)C(=O)O)NC(=O)[C@H](CCCCN)NC(=O)[C@H](CC(=O)O)NC(=O)[C@H](CC(C)C)NC(=O)[C@](C)(CC(C)C)NC(=O)[C@@H](NC(=O)[C@H](CO)NC(=O)[C@H](Cc1ccc(O)cc1)NC(=O)[C@H](CC(=O)O)NC(=O)[C@H](CO)NC(=O)[C@@H](NC(=O)[C@H](Cc1ccccc1)NC(=O)[C@@H](NC(=O)CNC(=O)[C@H](CCC(N)=O)NC(=O)C(C)(C)NC(=O)[C@@H](N)Cc1ccc(O)cc1)[C@@H](C)O)[C@@H](C)O)[C@@H](C)CC)C(=O)N[C@@H](CCC(=O)O)C(=O)N[C@@H](Cc1ccc(O)cc1)C(=O)N[C@@H](CC(C)C)C(=O)N[C@@H](CC(C)C)C(=O)N[C@@H](CCC(=O)O)C(=O)NCC(=O)NCC(=O)N1CCC[C@H]1C(=O)N[C@@H](CO)C(=O)N[C@@H](CO)C(=O)NCC(=O)N[C@@H](C)C(=O)N1CCC[C@H]1C(=O)N1CCC[C@H]1C(=O)N1CCC[C@H]1C(=O)N[C@@H](CO)C(N)=O` [GGG tri-receptor agonist, Y-Aib-QGTFTSDYSI-αMeL-LDKK((2-[2-(2-amino-ethoxy)-ethoxy]-acetyl)-(γGlu)-CO-(CH2)18-CO2H)AQ-Aib-AFIEYLLEGGPSSGAPPPS-NH2], for which the “tolerability profile of dosing regimens” value (in the series “Phase 2 study for T2DM”; in series [1]) was “acceptable tolerability profiles” throughout.
